From patent publication US20060019241A1, “Na+ and CI-coupled transport system for endogenous opioid peptides” (priority 2004, published 2006)
Entries after “also recorded” stand apart in the source; their conditions may differ.

Key:
Format in all cases: cell-based, human
[1] = tested on: deltorphin II transport system in control ARPE-19 cells; assay: Inhibition of [^3H]deltorphin II uptake in control ARPE-19 cells; conditions: [^3H]deltorphin II 50 nM, 30 minutes, NaCl, peptide/antagonist 1 mM; for [^3H] Deltorphin II uptake: control ARPE-19 cells (pcDNA vector alone); for [^3H] Deltorphin II uptake (%) of control: control ARPE-19 cells, control = 100
Excerpt: (§1) Stable transfection of ARPE-19 cells with pcDNA-Tat cDNA. The pGEM2-Tat cDNA construct contained as the insert a 295 basepair (bp) fragment encoding the first exon of HIV-1 Tat gene joined to a 145 bp pET3A transcription terminator. The entire insert (440 bp) was removed from the construct by digestion with PstI and EcoRI and ligated into the multiple cloning region of pcDNA3.1 (−) vector at PstI/EcoRI site so that the insert is downstream of the cytomegalovirus (CMV) promoter. The resultant construct was sequenced to confirm the orientation of the insert. This construct was electroporated into ARPE-19 cells and the stably transfected cell clones were isolated in the presence of Geneticin (G418). To serve as a control, empty pcDNA3.1 vector was electroporated into ARPE-19 cells in an identical manner and the clones harboring the vector were selected by G418 resistance.
(§2) Uptake measurements in control ARPE-19 cells and Tat-ARPE-19 cells. Control ARPE-19 cells and Tat-ARPE-19 cells were maintained in 75-cm^2 culture flasks in Dulbecco's modified Eagle's medium/F12 medium (1:1, volume/volume (v/v)) in the presence of fetal bovine serum (10%) and G418 (100 μg/ml). For uptake measurements, cells were released by trypsin treatment and seeded in 24-well culture plates at an initial density of 0.1×10^6 cells/well. The culture medium was replaced with fresh medium on the second day following the initial seeding and uptake measurements were made on the third day. […] After incubation at 37° C. for a desired time, uptake was terminated by the removal of the medium and washing of the cells with ice-cold uptake buffer. The cells were then dissolved in 1% SDS in 0.2 M NaOH and used for measurement of radioactivity. The uptake buffer in most experiments was 25 mM Hepes/Tris (pH 7.5), containing 140 mM NaCl, 5.4 mM KCl, 1.8 mM CaCl2, 0.8 mM MgSO4 and 5 mM glucose.
(§3) Substrate specificity of the deltorphin transport system. […] These peptides consisted of 4-13 amino acids.

[2] = tested on: enkephalin/endorphin transport system in SK—N—SH cells; assay: [^3H]deltorphin II uptake in SK—N—SH cells, effect of peptides and amino acids; conditions: for Deltorphin II uptake / effect on [^3H]deltorphin II uptake (in words): NaCl, 30 minutes; for Deltorphin II uptake: compound 1 mM; for effect on [^3H]deltorphin II uptake (in words): test substance 1 mM; for IC50: read-out: affinity for the transport system (concentration-dependent inhibition of [^3H]deltorphin II uptake), [^3H]deltorphin II 25 nM
Procedure: as §2
Since enkephalins and endorphins are relevant to pain perception and to further provide evidence in support of a role for the transport system in opioidergic neurotransmission, the human neuronal cell line SK—N—SH was tested for expression of the transport system. […] Unless otherwise specified, procedures are as detailed in Example 1.
The concentration of enkephalins and dynorphins was 1 mM.
Finally, the relative affinity of various enkephalins and dynorphins for the transport system in SK—N—SH cells was determined.
To the further characterize the opioid transport of the present invention, various specific peptides that act as positive modulators of the enkephalin/endorphin transport system in the human neuronal cell line SK—N—SH were identified. Unless otherwise specified, procedures are as detailed in Example 1. […] Uptake was measured in the presence of NaCl for 30 minutes. The concentration of the dipeptides was 1 mM.
Uptake was measured in the presence of NaCl for 30 minutes. The concentration of the tripeptides was 1 mM.
Unless otherwise specified, procedures are as described in more detail in Example 1.
The dose-response relationship for the inhibition of the enkephalin/endorphin transport system by L-Lysine and its methyl and ethyl esters is shown in FIG. 15.

[3] = tested on: deltorphin II transport system in Tat-ARPE-19 cells; assay: Inhibition of [^3H]deltorphin II uptake in Tat-ARPE-19 cells; conditions: for competition with deltorphin for the uptake process (in words): Tat-ARPE-19 / RPE cells, compound 1 mM; for competition with deltorphin for the uptake process (in words) / [^3H] Deltorphin II uptake / [^3H] Deltorphin II uptake (%) of control: [^3H]deltorphin II 50 nM; for [^3H] Deltorphin II uptake / [^3H] Deltorphin II uptake (%) of control: Tat-ARPE-19 cells, 30 minutes, NaCl, inhibitor 1 mM; for [^3H] Deltorphin II uptake (%) of control: control = 100
Excerpt: as §1, §2
When the influence of Na^+ on the uptake process was investigated, the concentration of NaCl in the uptake buffer was adjusted, as desired, by isoosmotically replacing NaCl with N-methyl-D-glucamine chloride. To assess the influence of Cl^− on the uptake process, the composition of the uptake medium was modified by replacing KCl and CaCl2 with equimolar concentrations of potassium gluconate and calcium gluconate and the concentration of NaCl was adjusted, as desired, by iso-osmotically replacing NaCl with sodium gluconate. Saturation kinetics were analysed by fitting the data to the Michaelis-Menten equation. The Michaelis-Menten constant, Kt, was calculated by non-linear regression analysis and then confirmed by linear regression. Na^+- and Cl^−-activation kinetics were analyzed by fitting the data to the Hill equation and the Hill coefficients for Na^+ and Cl^− (h; the number of Na^+ and Cl^− ions involved in the activation process) and the K0.5 values (the concentration of Na^+ and Cl^−-needed for half-maximal activation) were determined from the analysis. Again, these constants were first calculated by non-linear regression methods and subsequently confirmed by linear regression methods. Experiments were repeated three times in duplicate and the results are given as means±S.E.M.
as §3
Relative affinities of endogenous opioid peptides for the transport system.

| Compound | [^3H] Deltorphin II uptake [1] | [^3H] Deltorphin II uptake (%) of control [1] | [^3H] Deltorphin II uptake [3] | [^3H] Deltorphin II uptake (%) of control [3] | further results |
| --- | --- | --- | --- | --- | --- |
| O=C1CC[C@@]2(O)[C@H]3Cc4ccc(O)c5c4[C@@]2(CCN3CC2CC2)[C@H]1O5 [Naltrexone] | 1.12 ± 0.02 pmol/mg protein/30 min | 104% | – | – | – |
| C[N+](C)(C)CCCC[C@H](N)C(=O)O [Trimethyl-L-Lys] | – | – | – | – | Deltorphin II uptake ([2]; [^3H]deltorphin II 25 nM): 2.39 ± 0.11 pmol/30 min/mg protein |
| COC(=O)[C@H](CCCCN)NC(C)=O [α-N-acetyl-L-Lys-methyl ester] | – | – | – | – | Deltorphin II uptake ([2]; [^3H]deltorphin II 25 nM): 2.37 ± 0.20 pmol/30 min/mg protein |
| CC(=O)N[C@@H](CCCCN)C(=O)O [α-N-acetyl-L-Lys] | – | – | – | – | Deltorphin II uptake ([2]; [^3H]deltorphin II 25 nM): 2.82 ± 0.08 pmol/30 min/mg protein |
| NCC(=O)CCC(=O)O [δ-amino-levulinic acid] | – | – | – | – | Deltorphin II uptake ([2]; [^3H]deltorphin II 25 nM): 2.68 ± 0.18 pmol/30 min/mg protein |
| CC(=O)NCCCC[C@H](N)C(=O)O [ε-N-acetyl-L-Lys] | – | – | – | – | Deltorphin II uptake ([2]; [^3H]deltorphin II 25 nM): 2.38 ± 0.13 pmol/30 min/mg protein |
| Glu-Gly-Phe | – | – | – | – | effect on [^3H]deltorphin II uptake (in words) ([2]; [^3H]deltorphin II 25 nM): ability to stimulate the uptake |
| Gly-Gly-Gly | – | – | 9.68 ± 0.39 pmol/mg protein/30 min | 125% | competition with deltorphin for the uptake process (in words) [3]: did not compete; also recorded: significant stimulation; effect on [^3H]deltorphin II uptake (in words) ([2]; [^3H]deltorphin II 25 nM): ability to stimulate the uptake |
| Gly-Gly-Ile | – | – | – | – | influence on kinetic parameters of deltorphin II uptake ([2]; 1 mM Gly-Gly-Ile): increasing the maximal velocity of the system without affecting the affinity for its substrate; effect on [^3H]deltorphin II uptake (in words) ([2]; [^3H]deltorphin II 25 nM): ability to stimulate the uptake; also recorded: stimulated; stimulation of deltorphin II uptake ([2]; [^3H]deltorphin II 25 nM, peptide 1 mM): 6- to 8 fold |
| Gly-Gly-Phe | – | – | – | – | effect on [^3H]deltorphin II uptake (in words) ([2]; [^3H]deltorphin II 25 nM): ability to stimulate the uptake |
| Try-Gly-Gly | – | – | – | – | effect on [^3H]deltorphin II uptake (in words) ([2]; [^3H]deltorphin II 25 nM): ability to stimulate the uptake |
| Tyr-Gly-Gly-Phe-Leu [Leu-enkephalin] | – | – | 0.15 ± 0.01 pmol/mg protein/30 min | 2% | competition with deltorphin for the uptake process (in words) [3]: marked inhibition; IC50 [2]: 7.8 ± 1.2 µM |
| Tyr-Gly-Gly-Phe-Leu-Arg-Arg-IIe-Arg-Pro-Lys-Leu-Lys (YGGFLRRIRPKLK) [Dynorphin A (1-13)] | 0.04 ± 0.001 pmol/mg protein/30 min | 4% | 0.07 ± 0.01 pmol/mg protein/30 min | 1% | fold higher affinity than the shorter dynorphins (six to nine amino acids) ([3]; RPE cells): ~10 fold; IC50 [2]: 0.15 ± 0.01 µM |
| Tyr-Gly-Gly-Phe-Met [Met-enkephalin] | 0.06 ± 0.004 pmol/mg protein/30 min | 5% | 0.50 ± 0.01 pmol/mg protein/30 min | 6% | competition with deltorphin for the uptake process (in words) [3]: marked inhibition; IC50 [2]: 10.7 ± 3.1 µM |
| YGGFLR [Dynorphin A (1-6), Tyr-Gly-Gly-Phe-Leu-Arg] | 0.06 ± 0.001 pmol/mg protein/30 min | 5% | 0.12 ± 0.00 pmol/mg protein/30 min | 2% | IC50 [2]: 3.5 ± 0.4 µM |
| YGGFLRR [Dynorphin A (1-7), Tyr-Gly-Gly-Phe-Leu-Arg-Arg] | 0.05 ± 0.002 pmol/mg protein/30 min | 5% | 0.10 ± 0.02 pmol/mg protein/30 min | 1% | IC50 [2]: 4.6 ± 1.1 µM |
| YGGFMRF [[Arg^6, Phe^7] Met-enkephalin, Tyr-Gly-Gly-Phe-Met-Arg-Phe] | 0.05 ± 0.001 pmol/mg protein/30 min | 4% | 0.11 ± 0.01 pmol/mg protein/30 min | 1% | – |
| YGGFMRGL [[Arg^6, Gly^7, Leu^8[ Met-enkephalin] | 0.04 ± 0.001 pmol/mg protein/30 min | 4% | 0.09 ± 0.01 pmol/mg protein/30 min | 1% | – |
